In ChEMBL document CHEMBL1909046, “DrugMatrix in vitro pharmacology data”:

Experiments:
[1] = target: Mitogen-activated protein kinase 3 (Homo sapiens, UniProt P27361); assay: DRUGMATRIX: Protein Serine/Threonine Kinase, ERK1 enzyme inhibition (substrate: Myelin Basic Protein); parameters: species or system Escherichia coli; conditions: Not Active = under 50% inhibition at 10 µM
[2] = target: T1, Alpha-2C adrenergic receptor (Homo sapiens, UniProt P18825); assay: DRUGMATRIX: Adrenergic Alpha-2C radioligand binding (ligand: [3H] MK-912); format: cell membranes, Sf9, Membrane; conditions: for Ki: read-out: Ki
T1 sequence (P18825 whole entry): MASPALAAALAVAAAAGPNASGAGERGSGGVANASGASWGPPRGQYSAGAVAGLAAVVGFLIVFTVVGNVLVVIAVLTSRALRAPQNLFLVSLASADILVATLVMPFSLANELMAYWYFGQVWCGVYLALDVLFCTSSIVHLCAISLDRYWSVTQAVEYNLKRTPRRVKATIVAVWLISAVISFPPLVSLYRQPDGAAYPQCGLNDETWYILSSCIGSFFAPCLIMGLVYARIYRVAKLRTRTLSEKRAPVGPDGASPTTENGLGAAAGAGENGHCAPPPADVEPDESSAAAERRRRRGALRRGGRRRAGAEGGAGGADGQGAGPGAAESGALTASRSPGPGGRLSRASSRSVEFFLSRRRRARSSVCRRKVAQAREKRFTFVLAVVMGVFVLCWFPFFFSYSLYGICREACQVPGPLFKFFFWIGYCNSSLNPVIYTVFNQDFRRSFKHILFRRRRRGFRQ

[3] = target: T2, Amine oxidase [flavin-containing] A (Homo sapiens, UniProt P21397); assay: DRUGMATRIX: Monoamine Oxidase MAO-A enzyme inhibition (substrate: Kynuramine); parameters: species or system BTI-TN-5B1-4; conditions: bti-tn-5b1-4; Not Active = under 50% inhibition at 10 µM
T2 sequence (P21397 whole entry): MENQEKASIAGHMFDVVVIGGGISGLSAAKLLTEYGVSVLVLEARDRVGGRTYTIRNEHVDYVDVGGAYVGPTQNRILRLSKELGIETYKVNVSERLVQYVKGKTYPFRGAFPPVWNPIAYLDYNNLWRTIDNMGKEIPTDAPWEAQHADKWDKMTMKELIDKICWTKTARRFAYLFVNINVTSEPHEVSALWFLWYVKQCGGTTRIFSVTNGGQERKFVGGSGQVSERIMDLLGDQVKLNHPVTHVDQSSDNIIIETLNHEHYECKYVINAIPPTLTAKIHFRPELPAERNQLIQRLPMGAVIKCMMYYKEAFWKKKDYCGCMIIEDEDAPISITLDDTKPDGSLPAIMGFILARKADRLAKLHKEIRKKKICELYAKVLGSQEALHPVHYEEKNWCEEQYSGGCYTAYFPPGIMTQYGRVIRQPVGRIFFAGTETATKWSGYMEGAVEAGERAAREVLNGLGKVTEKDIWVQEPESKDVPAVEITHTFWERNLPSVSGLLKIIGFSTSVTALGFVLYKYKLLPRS

[4] = target: Melanocortin receptor 4 (Homo sapiens, UniProt P32245); format: cell membranes, Membrane; conditions: hek293; further: in other assays of this panel Not Active means under 50% inhibition at 10 µM
[5] = target: Platelet-activating factor receptor (Homo sapiens, UniProt P25105); assay: biochemical; format: tissue-based; conditions: platelet; further: in other assays of this panel Not Active means under 50% inhibition at 10 µM
[6] = target: T3, Angiotensin-converting enzyme (Oryctolagus cuniculus, UniProt P12822); format: tissue-based, Lung;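 further: enzymatic inhibition of angiotensin-converting enzyme measured with FAPGG as the substrate; in other assays of this panel Not Active means under 50% inhibition at 10 µM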
T3 sequence (P12822 whole entry): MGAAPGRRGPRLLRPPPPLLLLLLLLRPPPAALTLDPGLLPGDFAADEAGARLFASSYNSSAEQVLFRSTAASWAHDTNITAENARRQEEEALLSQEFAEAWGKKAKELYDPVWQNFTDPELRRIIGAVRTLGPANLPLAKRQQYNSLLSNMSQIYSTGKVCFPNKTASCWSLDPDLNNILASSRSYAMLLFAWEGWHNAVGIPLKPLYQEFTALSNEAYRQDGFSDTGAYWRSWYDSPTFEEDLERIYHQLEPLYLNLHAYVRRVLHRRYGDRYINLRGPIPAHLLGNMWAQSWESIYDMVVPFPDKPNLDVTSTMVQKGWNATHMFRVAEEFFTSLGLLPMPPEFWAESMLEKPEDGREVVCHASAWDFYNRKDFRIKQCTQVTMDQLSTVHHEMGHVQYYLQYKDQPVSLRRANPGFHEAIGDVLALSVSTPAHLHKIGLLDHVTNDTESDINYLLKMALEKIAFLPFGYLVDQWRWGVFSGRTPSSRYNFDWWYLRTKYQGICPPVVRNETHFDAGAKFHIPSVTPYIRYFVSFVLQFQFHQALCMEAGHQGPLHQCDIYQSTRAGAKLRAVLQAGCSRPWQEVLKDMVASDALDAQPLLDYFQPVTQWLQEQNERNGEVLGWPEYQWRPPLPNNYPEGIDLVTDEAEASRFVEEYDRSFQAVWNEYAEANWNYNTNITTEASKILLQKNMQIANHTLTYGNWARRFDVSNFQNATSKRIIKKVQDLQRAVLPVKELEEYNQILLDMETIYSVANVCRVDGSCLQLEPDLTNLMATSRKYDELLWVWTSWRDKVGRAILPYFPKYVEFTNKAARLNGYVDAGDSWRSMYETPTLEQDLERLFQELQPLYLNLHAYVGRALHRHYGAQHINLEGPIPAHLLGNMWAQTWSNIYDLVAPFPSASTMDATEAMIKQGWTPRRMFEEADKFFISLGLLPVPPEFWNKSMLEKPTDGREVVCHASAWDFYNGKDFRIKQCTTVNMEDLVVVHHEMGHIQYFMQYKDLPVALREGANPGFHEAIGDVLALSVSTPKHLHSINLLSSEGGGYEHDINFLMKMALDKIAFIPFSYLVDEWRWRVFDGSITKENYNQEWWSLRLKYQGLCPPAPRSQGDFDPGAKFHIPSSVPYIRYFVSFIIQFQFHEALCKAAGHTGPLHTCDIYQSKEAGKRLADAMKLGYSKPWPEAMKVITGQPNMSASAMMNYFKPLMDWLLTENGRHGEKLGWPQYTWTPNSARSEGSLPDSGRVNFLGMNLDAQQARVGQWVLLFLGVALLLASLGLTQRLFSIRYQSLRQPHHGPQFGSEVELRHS

Sequence of Mitogen-activated protein kinase 3 (P27361 whole entry): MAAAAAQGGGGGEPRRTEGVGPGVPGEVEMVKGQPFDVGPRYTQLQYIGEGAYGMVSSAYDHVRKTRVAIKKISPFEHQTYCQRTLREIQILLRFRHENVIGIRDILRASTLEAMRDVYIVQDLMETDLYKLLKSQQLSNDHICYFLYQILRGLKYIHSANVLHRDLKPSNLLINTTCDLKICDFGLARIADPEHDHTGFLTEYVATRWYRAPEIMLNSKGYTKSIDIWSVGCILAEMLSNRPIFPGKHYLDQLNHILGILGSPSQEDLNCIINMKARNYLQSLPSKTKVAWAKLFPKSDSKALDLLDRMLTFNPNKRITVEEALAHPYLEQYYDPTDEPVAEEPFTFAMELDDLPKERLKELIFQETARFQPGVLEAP
Sequence of Platelet-activating factor receptor (P25105 whole entry): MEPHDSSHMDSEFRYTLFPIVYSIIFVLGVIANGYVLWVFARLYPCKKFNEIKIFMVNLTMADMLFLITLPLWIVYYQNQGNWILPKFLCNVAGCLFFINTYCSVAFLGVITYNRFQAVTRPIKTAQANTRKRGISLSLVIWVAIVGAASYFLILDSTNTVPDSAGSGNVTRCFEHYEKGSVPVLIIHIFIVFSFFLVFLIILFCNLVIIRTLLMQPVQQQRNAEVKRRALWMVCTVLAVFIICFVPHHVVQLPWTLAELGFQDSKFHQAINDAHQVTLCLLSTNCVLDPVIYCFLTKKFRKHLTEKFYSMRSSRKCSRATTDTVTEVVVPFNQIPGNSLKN
Sequence of Melanocortin receptor 4 (P32245 whole entry): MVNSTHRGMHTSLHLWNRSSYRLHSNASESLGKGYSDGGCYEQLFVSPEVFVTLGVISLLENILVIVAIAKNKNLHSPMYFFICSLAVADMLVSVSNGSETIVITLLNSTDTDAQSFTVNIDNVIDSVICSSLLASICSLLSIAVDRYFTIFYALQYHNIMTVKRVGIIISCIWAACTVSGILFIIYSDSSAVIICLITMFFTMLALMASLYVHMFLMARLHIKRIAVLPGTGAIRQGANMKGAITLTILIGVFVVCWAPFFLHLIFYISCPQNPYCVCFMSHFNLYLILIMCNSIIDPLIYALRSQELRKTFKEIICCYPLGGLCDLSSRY

Compound | IC50 [1] | IC50 ([2]; sf9) | IC50 [3] | IC50 [4] | IC50 [5] | IC50 [6] | IC50 ([1]; read-out: IC50) | IC50 ([2]; read-out: IC50) | Ki [2] | IC50 ([2]; sf9, read-out: IC50) | Ki ([2]; sf9) | Ki [3] | Ki [4] | Ki [5] | Ki [6]
CCOC(N)=O | Not Active | Not Active | Not Active | Not Active | Not Active | Not Active | – | – | – | – | – | – | – | – | –
COc1ccc(CN2CCNCC2)c(OC)c1OC [TRIMETAZIDINE] | Not Active | Not Active | Not Active | Not Active | Not Active | Not Active | – | – | – | – | – | – | – | – | –
CC(=O)O[C@H]1C[C@@H]2CC[C@@H]3[C@H](CC[C@@]4(C)[C@H]3C[C@H]([N+]3(C)CCCCC3)[C@@H]4OC(C)=O)[C@@]2(C)C[C@@H]1N1CCCCC1.[Br-] [VECURONIUM BROMIDE] | Not Active | Not Active | Not Active | Not Active | Not Active | Not Active | – | – | – | – | – | – | – | – | –
C[C@@H]1C[C@H]2[C@@H]3CCC4=CC(=O)C=C[C@]4(C)C3=CC[C@]2(C)[C@H]1C(=O)CN1CCN(c2cc(N3CCCC3)nc(N3CCCC3)n2)CC1 [TIRILAZAD] | – | – | Not Active | Not Active | Not Active | Not Active | 16.3 µM | 7.9 µM | 1.15 µM | – | – | – | – | – | –
CC(C)OC(=O)C(C)(C)Oc1ccc(C(=O)c2ccc(Cl)cc2)cc1 [FENOFIBRATE] | Not Active | Not Active | Not Active | Not Active | Not Active | Not Active | – | – | – | – | – | – | – | – | –
C[C@@H](O)[C@H]1C(=O)N2C(C(=O)O)=C(S[C@@H]3CN[C@H](C(=O)N(C)C)C3)[C@H](C)[C@H]12 [MEROPENEM] | Not Active | Not Active | Not Active | Not Active | Not Active | Not Active | – | – | – | – | – | – | – | – | –
CC[C@@H](CO)NC(=O)[C@@H]1C=C2c3cccc4c3c(cn4C)C[C@H]2N(C)C1 [METHYSERGIDE] | Not Active | Not Active | Not Active | Not Active | Not Active | Not Active | – | – | – | – | – | – | – | – | –
CC(C)(C)NC[C@H](O)COc1nsnc1N1CCOCC1 [TIMOLOL] | Not Active | Not Active | Not Active | Not Active | Not Active | Not Active | – | – | – | – | – | – | – | – | –
CCN(CC)CC#CCOC(=O)C(O)(c1ccccc1)C1CCCCC1 (stereo not given) [OXYBUTYNIN] | Not Active | Not Active | Not Active | Not Active | Not Active | Not Active | – | – | – | – | – | – | – | – | –
O=c1[nH]c2ccccc2n1CCCN1CCC(n2c(=O)[nH]c3cc(Cl)ccc32)CC1 [DOMPERIDONE] | Not Active | – | Not Active | Not Active | Not Active | Not Active | – | – | – | – | – | – | – | – | –
CC1=C(CC(=O)O)c2cc(F)ccc2/C1=C\c1ccc(S(C)(=O)=O)cc1 [EXISULIND] | Not Active | Not Active | Not Active | Not Active | Not Active | Not Active | – | – | – | – | – | – | – | – | –
COc1ncnc(NS(=O)(=O)c2ccc(N)cc2)c1OC [SULFADOXINE] | Not Active | Not Active | Not Active | Not Active | Not Active | Not Active | – | – | – | – | – | – | – | – | –
CC(=O)Nc1nnc(S(N)(=O)=O)s1 [ACETAZOLAMIDE] | Not Active | Not Active | Not Active | Not Active | Not Active | Not Active | – | – | – | – | – | – | – | – | –
CO[C@H]1C[C@@H]2CC[C@@H](C)[C@@](O)(O2)C(=O)C(=O)N2CCCC[C@H]2C(=O)O[C@H]([C@H](C)C[C@@H]2CC[C@@H](O)[C@H](OC)C2)CC(=O)[C@H](C)/C=C(\C)[C@@H](O)[C@@H](OC)C(=O)[C@H](C)C[C@H](C)/C=C/C=C/C=C/1C [SIROLIMUS] | Not Active | Not Active | Not Active | Not Active | Not Active | Not Active | – | – | – | – | – | – | – | – | –
OCCN1CCN(CCCN2c3ccccc3Sc3ccc(C(F)(F)F)cc32)CC1 [FLUPHENAZINE] | Not Active | – | Not Active | Not Active | Not Active | Not Active | – | – | – | – | – | – | – | – | –
Cc1cn([C@H]2C[C@H](N=[N+]=[N-])[C@@H](CO)O2)c(=O)[nH]c1=O [ZIDOVUDINE] | Not Active | Not Active | Not Active | Not Active | Not Active | Not Active | – | – | – | – | – | – | – | – | –
THIMEROSAL | – | – | Not Active | Not Active | Not Active | Not Active | 0.774 µM | – | – | 5.04 µM | 0.732 µM | Not Active | Not Active | Not Active | Not Active
NC[C@H]1O[C@H](O[C@H]2[C@H](O)[C@@H](O[C@H]3O[C@H](CO)[C@@H](O)[C@H](N)[C@H]3O)[C@H](N)C[C@@H]2N)[C@H](N)C[C@@H]1O [TOBRAMYCIN] | Not Active | Not Active | Not Active | Not Active | Not Active | Not Active | – | – | – | – | – | – | – | – | –
O=P(O)(O)C(O)(Cc1cccnc1)P(=O)(O)O [RISEDRONIC ACID] | Not Active | Not Active | Not Active | Not Active | Not Active | Not Active | – | – | – | – | – | – | – | – | –
Nc1ccc(S(=O)(=O)Nc2nccs2)cc1 [SULFATHIAZOLE] | Not Active | Not Active | Not Active | Not Active | Not Active | Not Active | – | – | – | – | – | – | – | – | –
Nc1ccc(S(=O)(=O)Nc2ncccn2)cc1 [SULFADIAZINE] | Not Active | Not Active | Not Active | Not Active | Not Active | Not Active | – | – | – | – | – | – | – | – | –
O=c1n(CCCN2CCN(c3cccc(Cl)c3)CC2)nc2ccccn12 [TRAZODONE] | Not Active | – | Not Active | Not Active | Not Active | Not Active | – | – | – | – | – | – | – | – | –
Nc1nc2c(c(=O)[nH]1)N(C=O)C(CNc1ccc(C(=O)N[C@@H](CCC(=O)O)C(=O)O)cc1)CN2 (stereo not given in full) [LEUCOVORIN] | – | Not Active | Not Active | Not Active | Not Active | Not Active | – | – | – | – | – | – | – | – | –
C#CCN(C)[C@H](C)Cc1ccccc1 [SELEGILINE] | Not Active | Not Active | – | Not Active | Not Active | Not Active | – | – | – | – | – | – | – | – | –
